Key:
[1] = system: adrenergic receptor alpha 1; experiment: CEREP Alpha 1 (non-selective; antagonist radioligand); type: binding; details: BT13 1 μM; Cat. No. 0008; average of duplicate
[2] = target: dopamine transporter (Homo sapiens, UniProt Q01959); experiment: biochemical; details: read-out: Percentage of inhibition/potentiation from control
[3] = system: COMT (catechol-O-methyl transferase); experiment: CEREP COMT (catechol-O-methyl transferase); type: biochemical; details: BT13 1 μM; Cat. No. 0457; average of duplicate
[4] = Pharmacokinetics after intravenous injection; type: in vivo; details: rat, 10 mg/kg intravenously
[5] = target: CYP1A2 (Homo sapiens, UniProt P05177); experiment: CYP inhibition, fluorescent assay; type: biochemical; details: read-out: Inhibition of CYP isoforms (IC50), CYP1A2
CYP1A2, sequence (P05177 whole entry, canonical isoform): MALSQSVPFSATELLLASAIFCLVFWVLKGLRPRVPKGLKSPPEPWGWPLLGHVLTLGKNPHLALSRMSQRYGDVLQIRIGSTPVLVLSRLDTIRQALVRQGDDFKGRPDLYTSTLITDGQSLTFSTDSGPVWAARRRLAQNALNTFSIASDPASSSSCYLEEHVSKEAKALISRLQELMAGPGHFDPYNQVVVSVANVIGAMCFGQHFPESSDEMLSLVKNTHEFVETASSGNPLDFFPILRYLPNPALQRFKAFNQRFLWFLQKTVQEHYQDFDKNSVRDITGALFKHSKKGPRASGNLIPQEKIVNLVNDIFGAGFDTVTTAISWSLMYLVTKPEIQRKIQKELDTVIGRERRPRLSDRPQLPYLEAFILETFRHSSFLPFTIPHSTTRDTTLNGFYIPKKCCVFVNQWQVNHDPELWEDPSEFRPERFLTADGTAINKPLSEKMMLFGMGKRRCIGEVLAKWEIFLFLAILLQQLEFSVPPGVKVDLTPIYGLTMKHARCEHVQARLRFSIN

[6] = system: TrkA; experiment: TrkA phosphorylation assay in MG87TrkA cells; type: cell-based; details: BT13 10–100 μM, NGF positive control
Procedure: MG87RET, MG87TrkA, or MG87TrkB were plated on 35 mm tissue culture dishes 1–2 days before the experiment to achieve 90–95% of confluency of the cells at the day of stimulation with tested substances. If necessary, cells were transfected with 4 μg/well of GFRα1-, GFRα3-, or green fluorescent protein (GFP)-expressing plasmid using Lipofectamine 2000 (Invitrogen) for DNA delivery as described by manufacturer. Before the experiment cells were starved in serum-free DMEM containing 15 mM HEPES, pH 7.2 and 1% DMSO for 4 h and stimulated with BT13 or neurotrophic factors. Then cells were washed once with ice-cold PBS containing 1 mM Na3VO4 and 1 mM NaF and lysed on ice in 1 ml per well of RIPA-modified buffer (50 mM Tris-HCl, pH 7.4, 150 mM NaCl, 1 mM EDTA, 1% NP-40, 1% TX-100, 10% glycerol, EDTA-free protease inhibitor cocktail (Roche), 1 mM Na3VO4, 2.5 mg/ml of sodium deoxycholate, 1 mM NaF). Plates were incubated at +4°C on the horizontal shaker for 30 min with vigorous shaking. Afterwards, 80–100 μl aliquot was taken from each well to prepare whole cell lysates. This aliquot was mixed with equal volume of 2x Laemmli loading buffer (4% SDS, 20% glycerol, 10% 2-mercaptoethanol, 0.004% bromphenol blue, 0.125 M Tris HCl, pH 6.8) and boiled for 10 min at 100°C. Remaining cell lysates were used for immunoprecipitation of RET or Trk receptors. […]

[7] = system: adrenergic receptor alpha 2; experiment: CEREP Alpha 2 (non-selective; antagonist radioligand); type: binding; details: BT13 1 μM; Cat. No. 0011; average of duplicate
[8] = target: T1, serotonin receptor 5-HT2C (Homo sapiens, UniProt P28335); experiment: CEREP 5-HT2C (h) (agonist radioligand); type: binding; details: BT13 1 μM, Cat. No. 1003, average of duplicate, read-out: Percentage of inhibition/potentiation from control
T1 construct: purchased CEREP (contract assay) 0137, 1003
T1 sequence (P28335 33-458): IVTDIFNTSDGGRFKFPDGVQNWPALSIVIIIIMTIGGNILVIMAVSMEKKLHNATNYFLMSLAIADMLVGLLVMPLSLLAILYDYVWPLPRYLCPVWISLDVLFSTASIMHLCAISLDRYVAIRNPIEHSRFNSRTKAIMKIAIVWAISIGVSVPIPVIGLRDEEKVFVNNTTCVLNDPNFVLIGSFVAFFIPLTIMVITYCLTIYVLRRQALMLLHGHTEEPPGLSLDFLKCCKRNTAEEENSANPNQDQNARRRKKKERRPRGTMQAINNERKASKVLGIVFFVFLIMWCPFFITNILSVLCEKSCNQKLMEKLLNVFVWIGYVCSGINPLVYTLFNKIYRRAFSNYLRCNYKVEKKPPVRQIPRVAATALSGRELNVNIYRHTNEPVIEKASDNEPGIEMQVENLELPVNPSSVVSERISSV

[9] = target: KATP channel (Rattus norvegicus, UniProt Q09429); experiment: CEREP KATP channel (antagonist radioligand); type: binding; details: BT13 1 μM; Cat. No. 0165; average of duplicate; read-out: Percentage of inhibition/potentiation from control
KATP channel, sequence (Q09429 whole entry): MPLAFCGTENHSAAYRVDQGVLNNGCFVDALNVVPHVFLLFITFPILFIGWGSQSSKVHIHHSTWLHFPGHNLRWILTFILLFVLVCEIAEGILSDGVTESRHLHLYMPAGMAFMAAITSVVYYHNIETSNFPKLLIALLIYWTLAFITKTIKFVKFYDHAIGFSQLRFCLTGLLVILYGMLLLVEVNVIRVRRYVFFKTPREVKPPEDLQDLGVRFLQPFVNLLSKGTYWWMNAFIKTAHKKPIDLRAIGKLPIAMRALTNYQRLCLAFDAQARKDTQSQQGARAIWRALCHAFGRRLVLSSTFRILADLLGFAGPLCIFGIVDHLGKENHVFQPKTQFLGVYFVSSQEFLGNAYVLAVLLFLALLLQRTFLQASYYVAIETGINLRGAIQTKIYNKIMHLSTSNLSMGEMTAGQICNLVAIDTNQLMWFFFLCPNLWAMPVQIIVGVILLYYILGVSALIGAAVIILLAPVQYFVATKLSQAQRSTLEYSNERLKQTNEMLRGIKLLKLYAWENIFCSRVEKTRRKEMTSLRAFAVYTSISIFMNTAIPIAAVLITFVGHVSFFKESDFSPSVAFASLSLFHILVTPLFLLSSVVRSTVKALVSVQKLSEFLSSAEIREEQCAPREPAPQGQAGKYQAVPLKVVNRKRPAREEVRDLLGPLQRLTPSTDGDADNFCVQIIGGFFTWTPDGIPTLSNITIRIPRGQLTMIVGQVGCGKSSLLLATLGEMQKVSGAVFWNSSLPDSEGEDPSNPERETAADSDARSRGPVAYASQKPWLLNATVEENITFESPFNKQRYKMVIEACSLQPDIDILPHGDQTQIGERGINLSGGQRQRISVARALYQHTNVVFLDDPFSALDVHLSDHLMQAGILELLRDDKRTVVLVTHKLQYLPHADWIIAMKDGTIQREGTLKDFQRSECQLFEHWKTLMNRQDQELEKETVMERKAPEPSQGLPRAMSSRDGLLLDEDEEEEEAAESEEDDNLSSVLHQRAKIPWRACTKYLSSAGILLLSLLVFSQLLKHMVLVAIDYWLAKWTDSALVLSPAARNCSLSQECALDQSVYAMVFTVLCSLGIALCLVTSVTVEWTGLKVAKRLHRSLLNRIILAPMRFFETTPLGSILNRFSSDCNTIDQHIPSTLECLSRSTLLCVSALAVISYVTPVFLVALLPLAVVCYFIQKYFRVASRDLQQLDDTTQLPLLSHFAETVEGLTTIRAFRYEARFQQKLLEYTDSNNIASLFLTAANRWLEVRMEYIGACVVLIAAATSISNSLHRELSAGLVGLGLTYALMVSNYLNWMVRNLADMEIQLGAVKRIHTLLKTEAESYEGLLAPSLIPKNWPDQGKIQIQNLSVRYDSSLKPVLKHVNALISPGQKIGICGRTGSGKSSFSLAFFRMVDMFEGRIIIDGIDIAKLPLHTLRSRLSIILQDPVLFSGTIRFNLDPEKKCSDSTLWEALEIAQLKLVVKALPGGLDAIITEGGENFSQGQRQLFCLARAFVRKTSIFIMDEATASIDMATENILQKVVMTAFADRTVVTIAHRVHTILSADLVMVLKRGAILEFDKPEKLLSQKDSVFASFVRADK
KATP channel, sequence (P70673 whole entry partner): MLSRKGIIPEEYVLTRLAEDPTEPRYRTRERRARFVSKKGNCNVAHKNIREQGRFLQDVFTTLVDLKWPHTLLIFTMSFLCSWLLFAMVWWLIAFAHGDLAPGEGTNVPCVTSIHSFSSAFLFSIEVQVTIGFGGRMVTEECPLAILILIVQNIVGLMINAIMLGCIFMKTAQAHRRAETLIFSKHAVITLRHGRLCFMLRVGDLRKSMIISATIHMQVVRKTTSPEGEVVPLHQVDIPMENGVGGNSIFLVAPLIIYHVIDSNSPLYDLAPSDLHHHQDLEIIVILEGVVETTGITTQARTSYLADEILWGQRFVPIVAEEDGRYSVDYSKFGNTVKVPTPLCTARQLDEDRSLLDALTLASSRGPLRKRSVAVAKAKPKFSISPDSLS

[10] = target: T2, vasoactive intestinal peptide receptor PAC1 (PACAP) (Homo sapiens, UniProt P41586); experiment: CEREP PAC1 (PACAP) (h) (agonist radioligand); type: binding; details: BT13 1 μM; Cat. No. 1518; average of duplicate; read-out: Percentage of inhibition/potentiation from control
T2 construct: purchased CEREP (contract assay) 1518
T2 sequence (P41586 21-468): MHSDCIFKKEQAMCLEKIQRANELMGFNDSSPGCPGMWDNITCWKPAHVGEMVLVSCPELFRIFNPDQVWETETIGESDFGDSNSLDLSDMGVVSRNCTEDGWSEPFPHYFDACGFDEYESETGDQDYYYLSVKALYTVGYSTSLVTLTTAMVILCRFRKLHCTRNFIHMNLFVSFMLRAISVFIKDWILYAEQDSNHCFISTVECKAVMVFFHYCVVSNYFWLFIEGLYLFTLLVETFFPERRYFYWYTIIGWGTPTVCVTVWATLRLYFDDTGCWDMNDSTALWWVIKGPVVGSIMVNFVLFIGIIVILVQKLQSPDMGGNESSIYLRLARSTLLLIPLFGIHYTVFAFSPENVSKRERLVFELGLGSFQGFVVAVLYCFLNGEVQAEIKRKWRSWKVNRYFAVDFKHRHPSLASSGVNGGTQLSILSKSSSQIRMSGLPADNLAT

[11] = target: T3, opioid receptor delta (DOP) (Mus musculus, UniProt P32300); experiment: CEREP Delta (DOP) (agonist effect); type: cell-based; details: BT13 1 μM, Cat. No. 2568, average of duplicate, read-out: Percentage of inhibition/potentiation from control
T3 construct: purchased CEREP (contract assay) 2568
T3 sequence (P32300 whole entry): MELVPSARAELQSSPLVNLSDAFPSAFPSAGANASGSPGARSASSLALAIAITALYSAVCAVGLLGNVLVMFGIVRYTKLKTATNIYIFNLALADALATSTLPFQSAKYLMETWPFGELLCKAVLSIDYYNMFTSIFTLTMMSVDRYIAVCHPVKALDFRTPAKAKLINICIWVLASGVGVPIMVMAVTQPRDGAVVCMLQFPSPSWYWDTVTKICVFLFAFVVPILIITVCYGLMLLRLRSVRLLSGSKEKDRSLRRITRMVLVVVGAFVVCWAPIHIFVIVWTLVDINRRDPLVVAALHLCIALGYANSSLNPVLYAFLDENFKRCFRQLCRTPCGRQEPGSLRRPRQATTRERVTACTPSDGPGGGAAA

dopamine transporter, sequence (Q01959 whole entry): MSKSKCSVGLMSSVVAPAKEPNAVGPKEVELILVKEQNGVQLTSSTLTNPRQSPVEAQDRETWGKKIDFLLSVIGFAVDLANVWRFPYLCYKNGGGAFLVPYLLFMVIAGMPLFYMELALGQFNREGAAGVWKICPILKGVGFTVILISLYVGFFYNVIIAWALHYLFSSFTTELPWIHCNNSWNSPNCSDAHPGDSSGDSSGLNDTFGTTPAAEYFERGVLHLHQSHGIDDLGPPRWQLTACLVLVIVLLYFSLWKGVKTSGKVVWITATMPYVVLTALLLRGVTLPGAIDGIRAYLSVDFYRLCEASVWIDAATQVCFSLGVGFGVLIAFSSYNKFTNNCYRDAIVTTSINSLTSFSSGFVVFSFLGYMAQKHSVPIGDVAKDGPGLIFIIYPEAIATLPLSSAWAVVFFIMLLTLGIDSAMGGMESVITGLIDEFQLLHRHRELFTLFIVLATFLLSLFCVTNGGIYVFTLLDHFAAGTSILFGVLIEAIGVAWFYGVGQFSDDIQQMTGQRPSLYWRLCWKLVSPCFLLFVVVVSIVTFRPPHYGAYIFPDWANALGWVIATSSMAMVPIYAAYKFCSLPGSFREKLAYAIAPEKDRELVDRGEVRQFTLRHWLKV

CCN(CC)S(=O)(=O)c1ccc(OC)c(N2CCN(C(=O)c3ccc(F)cc3C(F)(F)F)CC2)c1 [BT13]
Percentage of inhibition/potentiation from control [1]: 2% | inhibition at 1 µM [2]: 6% | Percentage of inhibition/potentiation from control [3]: −2% | Kp ([4]; male, Sprague Dawley, iv, plasma and brain samples 1, 3 and 6 h, read-out: BBB penetration): 0.55 to 0.68 | clearance ([4]; male, Sprague Dawley, plasma, iv): 78.3 mL/min | Vd ([4]; male, Sprague Dawley, plasma, iv, one-compartment model): 23.6 L/kg | half-life ([4]; male, Sprague Dawley, plasma, iv, one-compartment model, read-out: t1/2 (half-life in the blood) (converted)): 3.47 h | BBB penetration ([4]; plasma and brain samples 1, 3 and 6 h, 10 mg/kg): 55–68% | IC50 [5]: > 100 µM | TrkA phosphorylation, Western blotting [6]: did not produce any detectable increase | Percentage of inhibition/potentiation from control [7]: −6% | inhibition at 1 µM [8]: 6% | inhibition at 1 µM [9]: 8% | inhibition at 1 µM [10]: 14% | inhibition at 1 µM [11]: -5.2%

Source: paper PMC5478727, “A Novel Small Molecule GDNF Receptor RET Agonist, BT13, Promotes Neurite Growth from Sensory Neurons in Vitro and Attenuates Experimental Neuropathy in the Rat” (Frontiers in Pharmacology, 2017)
